This is an account of results in ChEMBL document CHEMBL1144377, “Oximinoarylsulfonamides as potent HIV protease inhibitors” (Bioorg Med Chem Lett, 2005).

The first assay concerns Human immunodeficiency virus 1. As to the kind of experiment: Inhibitory concentration against wild type human immunodeficiency virus. The class given is functional, organism-based.
For `CC(C)CN(C[C@@H](O)[C@H](Cc1ccccc1)NC(=O)O[C@H]1CCOC1)S(=O)(=O)c1ccc(N)cc1`, the IC50 (commonly the point on the concentration scale where inhibition reaches its midpoint) is 0.109 µM.
Same read-out and setting: as for `Cc1nc(CN2CCN([C@H](C(=O)N[C@@H](Cc3ccccc3)[C@H](O)CN(CC(C)C)S(=O)(=O)c3ccc(CO)cc3)C(C)C)C2=O)cs1`, the figure is 0.061 µM; as for `CO/N=C\c1ccc(S(=O)(=O)N(CC(C)C)C[C@@H](O)[C@H](Cc2ccccc2)NC(=O)[C@H](C(C)C)N2CCN(Cc3csc(C)n3)C2=O)cc1`, 0.653 µM; as for `Cc1nc(CN2CCN([C@H](C(=O)N[C@@H](Cc3ccccc3)[C@H](O)CN(CC(C)C)S(=O)(=O)c3ccc(C(=N)NO)cc3)C(C)C)C2=O)cs1`, 0.143 µM.
On the same count and under the same terms, as for `Cc1nc(CN2CCN([C@H](C(=O)N[C@@H](Cc3ccccc3)[C@H](O)CN(CC(C)C)S(=O)(=O)c3ccc(/C=N\O)cc3)C(C)C)C2=O)cs1`, the figure is 0.005 µM; as for `Cc1nc(CN2CCN([C@H](C(=O)N[C@@H](Cc3ccccc3)[C@H](O)CN(CC(C)C)S(=O)(=O)c3ccc(C(N)=O)cc3)C(C)C)C2=O)cs1`, 0.254 µM.
On the same count and under the same terms, as for `Cc1nc(CN2CCN([C@H](C(=O)N[C@@H](Cc3ccccc3)[C@H](O)CN(CC(C)C)S(=O)(=O)c3cccc(/C=N\O)c3)C(C)C)C2=O)cs1`, the figure is 0.016 µM.
With `Cc1nc(CN2CCN([C@H](C(=O)N[C@@H](Cc3ccccc3)[C@H](O)CN(CC(C)C)S(=O)(=O)c3ccc(C#N)cc3)C(C)C)C2=O)cs1`, the IC50 stood at 0.148 µM.
On the same count and under the same terms, with `Cc1nc(CN2CCN([C@H](C(=O)N[C@@H](Cc3ccccc3)[C@H](O)CN(CC(C)C)S(=O)(=O)c3cccc(CO)c3)C(C)C)C2=O)cs1` the figure was 0.045 µM.
Same read-out and setting: with `Cc1nc(CN2CCN([C@H](C(=O)N[C@@H](Cc3ccccc3)[C@H](O)CN(CC(C)C)S(=O)(=O)c3ccc(N)cc3)C(C)C)C2=O)cs1` the figure was 0.031 µM; with `Cc1nc(CN2CCN([C@H](C(=O)N[C@@H](Cc3ccccc3)[C@H](O)CN(CC(C)C)S(=O)(=O)c3ccc(NS(C)(=O)=O)cc3)C(C)C)C2=O)cs1`, 1.19 µM.
Same read-out and setting: with `CC(=O)Nc1ccc(S(=O)(=O)N(CC(C)C)C[C@@H](O)[C@H](Cc2ccccc2)NC(=O)[C@H](C(C)C)N2CCN(Cc3csc(C)n3)C2=O)cc1` the figure was 0.312 µM; with `Cc1nc(CN2CCN([C@H](C(=O)N[C@@H](Cc3ccccc3)[C@H](O)CN(CC(C)C)S(=O)(=O)c3ccc(C=O)cc3)C(C)C)C2=O)cs1`, 0.051 µM.
For the compound `Cc1nc(CN2CCN([C@H](C(=O)N[C@@H](Cc3ccccc3)[C@H](O)CN(CC(C)C)S(=O)(=O)c3ccc(C(=O)O)cc3)C(C)C)C2=O)cs1`, it took 10 µM to reach half-maximal inhibition (IC50).
Still for that read-out and setting: with `CC(=O)c1ccc(S(=O)(=O)N(CC(C)C)C[C@@H](O)[C@H](Cc2ccccc2)NC(=O)[C@H](C(C)C)N2CCN(Cc3csc(C)n3)C2=O)cc1` the figure was 0.039 µM; with `Cc1nc(CN2CCN([C@H](C(=O)N[C@@H](Cc3ccccc3)[C@H](O)CN(CC(C)C)S(=O)(=O)c3ccc(NC=O)cc3)C(C)C)C2=O)cs1`, 0.168 µM.
The same measure, in the same setting: with `C=Cc1ccc(S(=O)(=O)N(CC(C)C)C[C@@H](O)[C@H](Cc2ccccc2)NC(=O)[C@H](C(C)C)N2CCN(Cc3csc(C)n3)C2=O)cc1` the figure was 0.101 µM.

The subject of a further assay is Human immunodeficiency virus 1. As to the kind of experiment: Inhibitory concentration against resistant (A17) human immunodeficiency virus. In kind it is functional, organism-based.
Take `CC(C)CN(C[C@@H](O)[C@H](Cc1ccccc1)NC(=O)O[C@H]1CCOC1)S(=O)(=O)c1ccc(N)cc1`: the half-inhibitory concentration (IC50) is 3.72 µM.
The compound `Cc1nc(CN2CCN([C@H](C(=O)N[C@@H](Cc3ccccc3)[C@H](O)CN(CC(C)C)S(=O)(=O)c3ccc(CO)cc3)C(C)C)C2=O)cs1` registered an IC50 of 0.099 µM.
For the compound `CO/N=C\c1ccc(S(=O)(=O)N(CC(C)C)C[C@@H](O)[C@H](Cc2ccccc2)NC(=O)[C@H](C(C)C)N2CCN(Cc3csc(C)n3)C2=O)cc1`, the IC50 was 3.01 µM.
`Cc1nc(CN2CCN([C@H](C(=O)N[C@@H](Cc3ccccc3)[C@H](O)CN(CC(C)C)S(=O)(=O)c3ccc(C(=N)NO)cc3)C(C)C)C2=O)cs1` registered an IC50 of 0.523 µM.
Still for that read-out and setting: with `Cc1nc(CN2CCN([C@H](C(=O)N[C@@H](Cc3ccccc3)[C@H](O)CN(CC(C)C)S(=O)(=O)c3ccc(/C=N\O)cc3)C(C)C)C2=O)cs1` the figure was 0.031 µM.
Still for that read-out and setting: as for `Cc1nc(CN2CCN([C@H](C(=O)N[C@@H](Cc3ccccc3)[C@H](O)CN(CC(C)C)S(=O)(=O)c3ccc(C(N)=O)cc3)C(C)C)C2=O)cs1`, the figure is 0.944 µM; as for `Cc1nc(CN2CCN([C@H](C(=O)N[C@@H](Cc3ccccc3)[C@H](O)CN(CC(C)C)S(=O)(=O)c3cccc(/C=N\O)c3)C(C)C)C2=O)cs1`, 0.222 µM.
Still for that read-out and setting: with `Cc1nc(CN2CCN([C@H](C(=O)N[C@@H](Cc3ccccc3)[C@H](O)CN(CC(C)C)S(=O)(=O)c3ccc(C#N)cc3)C(C)C)C2=O)cs1` the figure was 1.17 µM.
Turning to `Cc1nc(CN2CCN([C@H](C(=O)N[C@@H](Cc3ccccc3)[C@H](O)CN(CC(C)C)S(=O)(=O)c3cccc(CO)c3)C(C)C)C2=O)cs1`, the IC50 came out at 0.91 µM.
`Cc1nc(CN2CCN([C@H](C(=O)N[C@@H](Cc3ccccc3)[C@H](O)CN(CC(C)C)S(=O)(=O)c3ccc(N)cc3)C(C)C)C2=O)cs1` showed an IC50 of 0.311 µM. Compared with the last compound, the IC50 is about 2.9-fold lower.
The compound `Cc1nc(CN2CCN([C@H](C(=O)N[C@@H](Cc3ccccc3)[C@H](O)CN(CC(C)C)S(=O)(=O)c3ccc(NS(C)(=O)=O)cc3)C(C)C)C2=O)cs1` returned an IC50 of 10 µM.
On the same count and under the same terms, with `CC(=O)Nc1ccc(S(=O)(=O)N(CC(C)C)C[C@@H](O)[C@H](Cc2ccccc2)NC(=O)[C@H](C(C)C)N2CCN(Cc3csc(C)n3)C2=O)cc1` the figure was 1.52 µM; with `Cc1nc(CN2CCN([C@H](C(=O)N[C@@H](Cc3ccccc3)[C@H](O)CN(CC(C)C)S(=O)(=O)c3ccc(C=O)cc3)C(C)C)C2=O)cs1`, 0.206 µM.
In turn, `Cc1nc(CN2CCN([C@H](C(=O)N[C@@H](Cc3ccccc3)[C@H](O)CN(CC(C)C)S(=O)(=O)c3ccc(C(=O)O)cc3)C(C)C)C2=O)cs1` gave an IC50 of 9.44 µM. This IC50 lies about 46-fold higher than the previous one.
Same read-out and setting: with `CC(=O)c1ccc(S(=O)(=O)N(CC(C)C)C[C@@H](O)[C@H](Cc2ccccc2)NC(=O)[C@H](C(C)C)N2CCN(Cc3csc(C)n3)C2=O)cc1` the figure was 0.68 µM.
On the same count and under the same terms, as for `Cc1nc(CN2CCN([C@H](C(=O)N[C@@H](Cc3ccccc3)[C@H](O)CN(CC(C)C)S(=O)(=O)c3ccc(NC=O)cc3)C(C)C)C2=O)cs1`, the figure is 2.41 µM.
The compound `C=Cc1ccc(S(=O)(=O)N(CC(C)C)C[C@@H](O)[C@H](Cc2ccccc2)NC(=O)[C@H](C(C)C)N2CCN(Cc3csc(C)n3)C2=O)cc1` showed an IC50 of 0.957 µM.
On the same count and under the same terms, with `Cc1cccc(C)c1OCC(=O)N[C@@H](Cc1ccccc1)[C@@H](O)C[C@H](Cc1ccccc1)NC(=O)[C@H](C(C)C)N1CCCNC1=O` [LOPINAVIR] the figure was 1.24 µM.
Same read-out and setting: with `CC(C)c1nc(CN(C)C(=O)N[C@H](C(=O)N[C@@H](Cc2ccccc2)C[C@H](O)[C@H](Cc2ccccc2)NC(=O)OCc2cncs2)C(C)C)cs1` [RITONAVIR] the figure was 3.44 µM.
